Assay [1] has as its system blood glucose. The assay can be described thus: Hypoglycaemic activity: reduction in area under blood glucose curve after glucose load. The conditions noted are these: Mus musculus, read-out: % Reduction in area under Blood Glucose Curve. The class given is in vivo, Female CFLP mice. Here is the method:
Female CFLP mice, weighing approximately 25 g, were fasted for 24 hours prior to the study. The compounds under study were administered orally as an aqueous solution to each of 6 mice. 30 minutes later a blood sample (10 μl) was obtained from the tail for the analysis of blood glucose. Immediately after taking this blood sample, glucose (1 g/Kg body weight) was administered subcutaneously to each mouse. 6 mice were given water as a control. Blood samples were then obtained from each mouse at 30 minute intervals for 120 minutes.
Compounds that produced a significant (P<0.05) reduction of blood glucose, compared with control mice given water, at any time interval, were considered active. The area under the blood glucose curve over the 2 hour period after the administration of the glucose was calculated for each compound and compared with the value for control animals.

Assay [2] can be described thus: Effect on energy expenditure of mice. It is filed as in vivo, Female CFLP mice. The following applies: Mus musculus. Here is the method:
Female CFLP mice, each weighing approximately 24 g were given food and water ad lib before and during the experiment. The compounds were dissolved in water by addition of one mole of hydrochloric acid per mole of compound and these solutions were administered orally to each of 12 mice. A further 12 mice were dosed orally with water. The mice were placed in boxes through which air was drawn and the oxygen content of the air leaving the boxes was measured. The energy expenditure of the mice was calculated for 21 hours after dosing from the volume of air leaving the boxes and its oxygen content, following the principles described by J. B. de V. Weir, J. Physiol. (London), 109, 1-9 (1949).

The mark [3] stands for this setting: po, 21 h, read-out: Mean Energy Expenditure (0-21 h).
[4] abbreviates: po, 3 h, read-out: Mean Energy Expenditure (0-3 h).
[5] abbreviates: 2.5 μmol/Kg oral, 2 h after glucose 1 g/Kg s.c., vs control.
The mark [6] stands for this setting: 12.5 μmol/Kg oral, 2 h after glucose 1 g/Kg s.c., vs control.

Counter-ions that a name gives are not always drawn. Like-named read-outs stand apart in the source and are kept apart here.

Consider `COC(=O)COc1ccc(C[C@@H](C)NC[C@H](OC)c2cccc(Cl)c2)cc1` (relative stereo) [Example 60, N-[2-(4-Carbomethoxymethoxyphenyl)-1-methylethyl]-2-methoxy-2-(3-chlorophenyl)ethanamine hydrochloride(RR,SS)diasteroisomer], for which, in assay [1] (0.5 μmol/Kg oral, 2 h after glucose 1 g/Kg s.c., vs control), the inhibition in vivo at 0.5 µmol/kg was determined as 30.5%. Also, the response vs control in vivo at 8.6 mg/kg in assay [2] (setting [3]) was 115%; in assay [2] (8.6 mg/kg po, 0-3 h, read-out: Mean Energy Expenditure (0-3 h)), 131%.

As to `COC(=O)COc1ccc(CC(C)NCC(OC)c2cccc(C(F)(F)F)c2)cc1` (stereo not drawn) [Example 2, N-[2-(4-Carbomethoxymethoxyphenyl)-1-methylethyl]-2-methoxy-2-(3-trifluoromethylphenyl)ethanamine hydrochloride], in assay [1] (po, 2 h), the inhibition in vivo at 12.5 µmol/kg was determined as 47%. Moreover, the results for the response vs control in vivo at 23.1 mg/kg in assay [2] (setting [4]) and in assay [2] (setting [3]) were 124% and 113%, respectively.

With `CCOC(CNC(C)Cc1ccc(OCC(=O)OC)cc1)c1cccc(Cl)c1` (stereo not drawn) [Example 3, N-[2-(4-Carbomethoxymethoxyphenyl)-1-methylethyl]-2-ethoxy-2-(3-chlorophenyl)ethanamine hydrochloride], in assay [1] (po, 2 h), the inhibition in vivo at 12.5 µmol/kg stood at 49%. Besides, the response vs control in vivo at 22.1 mg/kg in assay [2] (setting [4]) stood at 135%; in assay [2] (setting [3]) it was 116%.

With `CNC(=O)COc1ccc(CC(C)NCC(OC)c2cccc(Cl)c2)cc1` (stereo not drawn) [Example 4, N-[2-(4-Methylaminocarbonylmethoxyphenyl)-1-methylethyl]-2-methoxy-2-(3-chlorophenyl)ethanamine hydrochloride], the inhibition in vivo at 1 µmol/kg in assay [1] (po, 2 h) was 54%. In addition, the figures for the response vs control in vivo at 8.5 mg/kg in assay [2] (setting [4]) and in assay [2] (setting [3]) were 152% and 120%, respectively.

For `COC(=O)c1ccc(CC(C)NCC(OC)c2cccc(Cl)c2)cc1` (stereo not drawn) [Example 5, N-[2-(4-Carbomethoxyphenyl)-1-methylethyl]-2-methoxy-2-(3-chlorophenyl)ethanamine hydrochloride], the inhibition in vivo at 12.5 µmol/kg in assay [1] (po, 2 h) was 27%. Also, the response vs control in vivo at 19.9 mg/kg turned out to be 128% in assay [2] (setting [4]) and 117% in assay [2] (setting [3]).

For the molecule `COC(=O)COc1cccc(CC(C)NCC(OC)c2cccc(Cl)c2)c1` (stereo not drawn) [Example 8, N-[2-(3-Carbomethoxymethoxyphenyl)-1-methylethyl]-2-methoxy-2-(3-chlorophenyl)ethanamine hydrochloride], the inhibition in vivo at 12.5 µmol/kg in assay [1] (po, 2 h) came to 49%. Besides, the response vs control in vivo at 21.4 mg/kg in assay [2] (setting [4]) came out at 142%; in assay [2] (setting [3]) it was 111%.

Take `CNCCOc1ccc(CC(C)NCC(OC)c2cccc(Cl)c2)cc1` (stereo not drawn) [Example 9, N-[2-(4-Methylaminoethoxy)phenyl)-1-methylethyl]-2-methoxy-2-(3-chlorophenyl)ethanamine dihydrochloride]: the inhibition in vivo at 2.5 µmol/kg in assay [1] (setting [5]) amounted to 31%. The response vs control in vivo at 22.4 mg/kg in assay [2] (setting [4]) stood at 168%; in assay [2] (22.4 mg/kg po, 0-21 h, read-out: Mean Energy Expenditure (0-21 h)), 151%.

For the molecule `COC(=O)COc1ccc(CC(C)NCC(OC)c2ccccc2)cc1` (stereo not drawn) [Example 10, N-[2-(4-Carbomethoxymethoxyphenyl)-1-methylethyl]-2-methoxy-2-phenylethanamine hydrochloride monohydrate], in assay [1] (po, 2 h), the inhibition in vivo at 1 µmol/kg turned out to be 24%. In addition, the response vs control in vivo at 20.6 mg/kg in assay [2] (setting [4]) stood at 135%; in assay [2] (setting [3]), 114%.

Regarding `CNC(=O)COc1ccc(CC(C)NCC(OC)c2ccccc2)cc1` (stereo not drawn) [Example 11, N-[2-(4-Methylaminocarbonylmethoxyphenyl)-1-methylethyl]-2-methoxy-2-phenylethanamine hydrochloride], the inhibition in vivo at 1 µmol/kg in assay [1] (po, 2 h) stood at 42%. The figures for the response vs control in vivo at 19.6 mg/kg in assay [2] (setting [4]) and in assay [2] (setting [3]) were 139% and 118%, respectively.

On to `COC(=O)COc1ccc(CC(C)NCC(OC)c2cccc(Br)c2)cc1` (stereo not drawn) [Example 12, N-[2-(4-Carbomethoxymethoxyphenyl)-1-methylethyl]-2-methoxy-2-(3-bromophenyl)ethanamine hydrochloride], for which the inhibition in vivo at 1 µmol/kg in assay [1] (po, 2 h) turned out to be 51%. Moreover, the response vs control in vivo at 23.6 mg/kg in assay [2] (setting [4]) was determined as 130%; in assay [2] (setting [3]) it was 123%.

`CNCCOc1ccc(CC(C)NCC(OC)c2ccccc2)cc1` (stereo not drawn) [Example 13, N-[2-(4-(2-Methylaminoethoxy)phenyl)-1-methylethyl]-2-methoxy-2-phenylethanamine dihydrochloride]: the inhibition in vivo at 2.5 µmol/kg in assay [1] (po, 2 h) was found to be 21%. Moreover, the values for the response vs control in vivo at 20.8 mg/kg in assay [2] (setting [4]) and in assay [2] (setting [3]) were 145% and 118%, respectively.

Take `COC(=O)COc1ccc(CCC(C)NCC(OC)c2cccc(Cl)c2)cc1` (stereo not drawn) [Example 14, N-[3-(4-Carbomethoxymethoxyphenyl)-1-methylpropyl)-2-methoxy-2-(3-chlorophenyl)ethanamine hydrochloride]: the response vs control in vivo at 22.1 mg/kg in assay [2] (22.1 mg/kg po, 0-3 h, read-out: Mean Energy Expenditure (0-3 h)) was determined as 135%; in assay [2] (22.1 mg/kg po, 0-21 h, read-out: Mean Energy Expenditure (0-21 h)), 103%.

On to `CNC(=O)COc1ccc(CC(C)NCC(OC)c2cccc(Br)c2)cc1` (stereo not drawn) [Example 15, N-[2-(4-Methylaminocarbonylmethoxyphenyl)-1-methylethyl]-2-methoxy-2-(3-bromophenyl)ethanamine hydrochloride], for which the inhibition in vivo at 0.5 µmol/kg in assay [1] (po, 2 h) came out at 41%. Besides, the values for the response vs control in vivo at 23.6 mg/kg in assay [2] (setting [4]) and in assay [2] (setting [3]) were 137% and 125%, respectively.

As for `CCOC(CNC(C)Cc1ccc(OCC(=O)NC)cc1)c1cccc(Cl)c1` (stereo not drawn) [Example 16, N-[2-(4-Methylaminocarbonylmethoxyphenyl)-1-methylethyl]-2-ethoxy-2-(3-chlorophenyl)ethanamine hydrochloride], the inhibition in vivo at 1 µmol/kg in assay [1] (po, 2 h) was found to be 49%. For the same molecule, the response vs control in vivo at 22.1 mg/kg in assay [2] (setting [4]) was found to be 140%; in assay [2] (setting [3]), 126%.

Consider `CNCCOc1ccc(CC(C)NCC(OC)c2cccc(Br)c2)cc1` (stereo not drawn) [Example 17, N-[2-(4-Methylaminoethoxy)phenyl)-1-methylethyl]-2-methoxy-2-(3-bromophenyl)ethanamine dihydrochloride], for which the inhibition in vivo at 2.5 µmol/kg in assay [1] (setting [5]) is 25%. In addition, the response vs control in vivo at 24.7 mg/kg in assay [2] (setting [4]) worked out at 142%; in assay [2] (setting [3]) it was 130%.

For the molecule `COC(=O)c1ccc(CC(C)NCC(OC)c2ccccc2)cc1` (stereo not drawn) [Example 32, N-[2-(4-Carbomethoxyphenyl)-1-methylethyl]-2-methoxy-2-phenylethanamine hydrochloride hemihydrate], the inhibition in vivo at 12.5 µmol/kg in assay [1] (setting [6]) is 19%.

Regarding `COc1ccc(CC(C)NCC(OC)c2cccc(Cl)c2)cc1` (stereo not drawn) [Example 38, N-[2-(4-Methoxyphenyl)-1-methylethyl]-2-methoxy-2-(3-chlorophenyl)ethanamine hydrochloride], the inhibition in vivo at 25 µmol/kg in assay [1] (po, 2 h) turned out to be 38%.

For `COC(=O)c1ccc(CC(C)NCC(OC)c2cccc(C(F)(F)F)c2)cc1` (stereo not drawn) [Example 45, N-[2-(4-Carbomethoxyphenyl)-1-methylethyl]-2-methoxy-2-(3-trifluoromethylphenyl)ethanamine hydrochloride hemihydrate], the inhibition in vivo at 12.5 µmol/kg in assay [1] (setting [6]) worked out at 38%.

On to `CNC(=O)COc1ccc(CC(C)NCC(OC)c2cccc(F)c2F)cc1` (stereo not drawn) [Example 54, N-[2-(4-Methylaminocarbonylmethoxyphenyl)-1-methylethyl]-2-methoxy-2-(2,3-difluorophenyl)ethanamine dihydrochloride], for which, in assay [1] (po, 2 h), the inhibition in vivo at 25 µmol/kg amounted to 40%.

The record behind these values is US4629737A, “Secondary amines and use in pharmaceutical compositions” (Beecham Group p.l.c., priority 1982, dated 1986).
